Measurements taken from US20090311217A1, “3-SUBSTITUTED-1H-INDOLE COMPOUNDS, THEIR USE AS MTOR KINASE AND PI3 KINASE INHIBITORS, AND THEIR SYNTHESES” (priority 2008, published 2009).
Where two headings read alike, the source gives them in different places.

How the values were obtained:
PI3K-alpha = PI3K-alpha (Homo sapiens, UniProt P42336); experiment: PI3K-alpha fluorescence polarization assay; type: biochemical; settings: read-out: PI3Kα Avg. IC50
PI3K-gamma = PI3K-gamma (Homo sapiens, UniProt P48736); experiment: PI3K-gamma fluorescence polarization assay; type: biochemical
Sequence of PI3K-gamma (P48736 whole entry, species assumed, the tested form may be a part): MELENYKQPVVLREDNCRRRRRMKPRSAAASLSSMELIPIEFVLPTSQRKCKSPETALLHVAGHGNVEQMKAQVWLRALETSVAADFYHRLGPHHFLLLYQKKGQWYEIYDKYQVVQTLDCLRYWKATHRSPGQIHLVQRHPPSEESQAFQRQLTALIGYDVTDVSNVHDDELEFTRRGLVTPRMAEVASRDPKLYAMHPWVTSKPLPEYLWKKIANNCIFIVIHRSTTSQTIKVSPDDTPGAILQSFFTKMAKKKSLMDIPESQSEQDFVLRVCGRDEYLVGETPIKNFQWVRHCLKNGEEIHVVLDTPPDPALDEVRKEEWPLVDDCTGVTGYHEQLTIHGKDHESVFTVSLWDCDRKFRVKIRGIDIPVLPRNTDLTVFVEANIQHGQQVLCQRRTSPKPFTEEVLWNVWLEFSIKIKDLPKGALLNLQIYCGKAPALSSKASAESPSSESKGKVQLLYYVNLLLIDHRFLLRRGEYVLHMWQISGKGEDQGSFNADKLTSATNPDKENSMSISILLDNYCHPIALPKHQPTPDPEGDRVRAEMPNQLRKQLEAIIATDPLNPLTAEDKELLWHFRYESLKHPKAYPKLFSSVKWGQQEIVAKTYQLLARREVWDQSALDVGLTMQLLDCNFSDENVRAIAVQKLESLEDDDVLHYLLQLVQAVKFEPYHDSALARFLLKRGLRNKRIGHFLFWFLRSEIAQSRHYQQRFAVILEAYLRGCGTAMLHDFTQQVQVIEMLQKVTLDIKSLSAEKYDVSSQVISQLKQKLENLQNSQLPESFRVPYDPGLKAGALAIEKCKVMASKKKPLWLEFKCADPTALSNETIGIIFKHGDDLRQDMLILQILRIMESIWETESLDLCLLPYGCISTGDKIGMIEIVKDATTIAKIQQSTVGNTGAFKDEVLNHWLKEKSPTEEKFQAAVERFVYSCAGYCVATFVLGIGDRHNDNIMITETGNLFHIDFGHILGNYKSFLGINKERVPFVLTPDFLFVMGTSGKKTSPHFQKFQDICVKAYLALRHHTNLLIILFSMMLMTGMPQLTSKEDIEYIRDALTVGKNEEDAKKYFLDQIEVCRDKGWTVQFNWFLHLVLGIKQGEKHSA
In short: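 Enzyme 5 ng; substrate diC8-PI(4,5)P2 2.5 μM; ATP 25 μM; 5 mM HEPES pH 7, 2.5 mM MgCl2; DMSO ≤2%; 1 h, 25° C. Quench 10 mM EDTA. Detect with GRP1 PH domain 100 nM + TMR-IP4 probe 5 nM by polarization.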

Sequence of PI3K-alpha (P42336 whole entry, species assumed): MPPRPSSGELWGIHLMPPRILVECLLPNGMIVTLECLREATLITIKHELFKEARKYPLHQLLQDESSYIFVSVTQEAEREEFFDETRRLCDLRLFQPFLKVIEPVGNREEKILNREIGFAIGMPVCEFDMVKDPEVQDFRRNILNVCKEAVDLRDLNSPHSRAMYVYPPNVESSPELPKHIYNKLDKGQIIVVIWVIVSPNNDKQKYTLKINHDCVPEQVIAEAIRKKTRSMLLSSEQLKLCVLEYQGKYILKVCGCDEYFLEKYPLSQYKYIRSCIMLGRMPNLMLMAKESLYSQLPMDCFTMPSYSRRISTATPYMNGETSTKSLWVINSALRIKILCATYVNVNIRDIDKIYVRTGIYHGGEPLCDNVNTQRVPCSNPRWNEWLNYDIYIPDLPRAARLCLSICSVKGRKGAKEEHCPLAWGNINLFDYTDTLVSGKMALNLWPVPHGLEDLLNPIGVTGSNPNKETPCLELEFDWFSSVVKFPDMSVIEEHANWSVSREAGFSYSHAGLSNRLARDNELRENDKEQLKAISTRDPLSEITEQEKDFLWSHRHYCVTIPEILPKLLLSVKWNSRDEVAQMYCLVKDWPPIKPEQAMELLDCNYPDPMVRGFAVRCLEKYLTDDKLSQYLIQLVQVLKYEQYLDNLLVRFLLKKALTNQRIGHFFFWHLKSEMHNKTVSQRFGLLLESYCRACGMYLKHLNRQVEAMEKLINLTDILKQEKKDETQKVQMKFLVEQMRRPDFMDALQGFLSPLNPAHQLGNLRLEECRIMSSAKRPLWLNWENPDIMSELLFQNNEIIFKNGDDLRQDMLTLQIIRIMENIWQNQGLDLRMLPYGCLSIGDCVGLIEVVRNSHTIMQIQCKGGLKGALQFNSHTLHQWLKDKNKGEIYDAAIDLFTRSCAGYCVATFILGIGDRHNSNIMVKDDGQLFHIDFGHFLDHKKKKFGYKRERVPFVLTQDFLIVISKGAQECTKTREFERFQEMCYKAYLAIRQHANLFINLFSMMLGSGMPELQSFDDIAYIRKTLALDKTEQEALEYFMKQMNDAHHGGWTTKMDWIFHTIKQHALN
Sequence of PI3K-alpha (P27986 whole entry partner, species assumed): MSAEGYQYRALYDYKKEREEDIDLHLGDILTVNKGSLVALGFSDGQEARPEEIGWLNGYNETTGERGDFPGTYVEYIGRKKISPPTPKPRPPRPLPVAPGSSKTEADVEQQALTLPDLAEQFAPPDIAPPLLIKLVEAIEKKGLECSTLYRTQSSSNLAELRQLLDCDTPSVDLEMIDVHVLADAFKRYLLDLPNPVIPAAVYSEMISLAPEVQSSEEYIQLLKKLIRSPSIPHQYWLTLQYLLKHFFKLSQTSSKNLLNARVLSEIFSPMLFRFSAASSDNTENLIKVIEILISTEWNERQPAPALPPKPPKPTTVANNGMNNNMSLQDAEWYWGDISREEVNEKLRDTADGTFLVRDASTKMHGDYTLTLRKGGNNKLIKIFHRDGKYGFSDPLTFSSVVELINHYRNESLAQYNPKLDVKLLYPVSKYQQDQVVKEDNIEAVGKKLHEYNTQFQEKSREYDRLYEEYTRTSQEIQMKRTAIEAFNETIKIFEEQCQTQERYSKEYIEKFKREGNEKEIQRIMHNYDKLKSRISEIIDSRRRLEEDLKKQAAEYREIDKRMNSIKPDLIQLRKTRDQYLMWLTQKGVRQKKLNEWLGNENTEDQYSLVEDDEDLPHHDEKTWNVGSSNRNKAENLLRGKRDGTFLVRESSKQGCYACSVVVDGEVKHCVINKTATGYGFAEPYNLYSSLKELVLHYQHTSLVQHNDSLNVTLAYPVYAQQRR

Row | IC50 (PI3K-alpha) [nM] | IC50 (PI3K-gamma; PI3Kγ Avg. IC50) [nM] | Compound | IC50 (PI3K-gamma; read-out: PI3Kγ Avg. IC50) [nM]
1 | 288 | 932 | COc1ccc2[nH]c(-c3ccccc3)c(CC3Oc4cc(O)cc(O)c4C3=O)c2c1 (centres unmarked) [Example 118, 4,6-dihydroxy-2-[(5-methoxy-2-phenyl-1H-indol-3-yl)methyl]-1-benzofuran-3(2H)-one] | –
2 | 465 | 1310 | COc1ccc(NC(=O)Nc2ccc3c(c2)C(=O)/C(=C/c2c[nH]c4ccc(OC)cc24)O3)cc1 [Compound 491, 1-{(2Z)-2-[(5-methoxy-1H-indol-3-yl)methylene]-3-oxo-2,3-dihydro-1-benzofuran-5-yl}-3-(4-methoxyphenyl)urea] | –
3 | > 10000 | > 10000 | COc1ccc2[nH]cc(/C=C3\Oc4ccc(NC(=O)Nc5ccccc5)cc4C3=O)c2c1 [Compound 485, 1-{(2Z)-2-[(5-methoxy-1H-indol-3-yl)methylene]-3-oxo-2,3-dihydro-1-benzofuran-5-yl}-3-phenylurea] | –
4 | 40.5 | 316 | CNC(=O)Nc1ccc2c(c1)C(=O)/C(=C/c1c(C(=O)N(C)CCN(C)C)[nH]c3ccc(OC)cc13)O2 [Compound 602, N-[2-(dimethylamino)ethyl]-5-methoxy-N-methyl-3-[(Z)-{5-[(methylcarbamoyl)amino]-3-oxo-1-benzofuran-2(3H)-ylidene}methyl]-1H-indole-2-carboxamide] | –
5 | 8 | 77 | CNC(=O)Nc1ccc2c(c1)C(=O)/C(=C/c1c(C(=O)N3CCN(C)CC3)[nH]c3ccc(OC)cc13)O2 [Compound 601, 1-[(2Z)-2-({5-methoxy-2-[(4-methylpiperazin-1-yl)carbonyl]-1H-indol-3-yl}methylidene)-3-oxo-2,3-dihydro-1-benzofuran-5-yl]-3-methylurea] | –
6 | 35.5 | 5220 | CNCCNC(=O)Nc1ccc2c(c1)C(=O)/C(=C/c1cn(CCN3CCN(C)CC3)c3ccc(OC)cc13)O2 [Compound 563, 1-[(2Z)-2-({5-methoxy-1-[2-(4-methylpiperazin-1-yl)ethyl]-1H-indol-3-yl}methylene)-3-oxo-2,3-dihydro-1-benzofuran-5-yl]-3-[2-(methylamino)ethyl]urea] | –
7 | 2.15 | 835 | CNC(=O)Nc1ccc2c(c1)C(=O)/C(=C/c1c(C)n(CCN3CCN(C)CC3)c3ccc(OC)cc13)O2 [Compound 556, 1-[(2Z)-2-({5-methoxy-2-methyl-1-[2-(4-methylpiperazin-1-yl)ethyl]-1H-indol-3-yl}methylene)-3-oxo-2,3-dihydro-1-benzofuran-5-yl]-3-methylurea] | –
8 | 64.5 | 1130 | C=CCNC(=O)Nc1ccc2c(c1)C(=O)/C(=C/c1cn(CCN3CCN(C)CC3)c3ccc(OC)cc13)O2 [Compound 550, 1-allyl-3-[(2Z)-2-({5-methoxy-1-[2-(4-methylpiperazin-1-yl)ethyl]-1H-indol-3-yl}methylene)-3-oxo-2,3-dihydro-1-benzofuran-5-yl]urea] | –
9 | 1380 | 4100 | COc1ccc2c(c1)c(/C=C1\Oc3ccc(O)cc3C1=O)cn2CCCC#N [Compound 514, 4-{3-[(Z)-(5-hydroxy-3-oxo-1-benzofuran-2(3H)-ylidene)methyl]-5-methoxy-1Hindol-1-yl}butanenitrile] | –
10 | 6190 | > 10000 | CNC(=O)Nc1cc(O)cc2c1C(=O)/C(=C/c1c[nH]c3ccc(OC)cc13)O2 [Compound 526, 1-{(2Z)-6-hydroxy-2-[(5-methoxy-1H-indol-3-yl)methylene]-3-oxo-2,3-dihydro-1-benzofuran-4-yl}-3-methylurea] | –
11 | 8500 | > 10000 | COc1ccc2[nH]cc(/C=C3\Oc4cc(C#N)ccc4C3=O)c2c1 [Compound 508, (2Z)-2-[(5-methoxy-1H-indol-3-yl)methylene]-3-oxo-2,3-dihydro-1-benzofuran-6-carbonitrile] | –
12 | 1220 | > 10000 | COc1ccc2c(c1)c(C=C1Oc3cccc(O)c3C1=O)c(C)n2CCCCCl [Example 123, 2-{[1-(4-chlorobutyl)-5-methoxy-2-methyl-1H-indol-3-yl]methylene}-4-hydroxy-1-benzofuran-3(2H)-one] | –
13 | 656 | > 10000 | COc1ccc2[nH]cc(/C=C3\Oc4ccc(NC(=O)Nc5ccc(N(C)C)cc5)cc4C3=O)c2c1 [Compound 492, 1-[4-(dimethylamino)phenyl]-3-{(2Z)-2-[(5-methoxy-1H-indol-3-yl)methylene]-3-oxo-2,3-dihydro-1-benzofuran-5-yl}urea] | –
14 | 53 | 1360 | CNC(=O)Nc1ccc2c(c1)C(=O)/C(=C/c1cn(CCCN3CCOCC3)c3ccc(OC)cc13)O2 [Compound 580, 1-[(2Z)-2-{[5-methoxy-1-(3-morpholin-4-ylpropyl)-1H-indol-3-yl]methylene}-3-oxo-2,3-dihydro-1-benzofuran-5-yl]-3-methylurea] | –
15 | 58.5 | 545 | CNC(=O)Nc1ccc2c(c1)C(=O)/C(=C/c1c[nH]c3ccc(OC)cc13)O2 [Compound 536, 1-{(2Z)-2-[(5-methoxy-1H-indol-3-yl)methylene]-3-oxo-2,3-dihydro-1-benzofuran-5-yl}-3-methylurea] | –
16 | 9860 | 5220 | COc1ccc2[nH]cc(C=C3Oc4c(OC)cccc4C3=O)c2c1 [Compound 483, 7-methoxy-2-[(5-methoxy-1H-indol-3-yl)methylene]-1-benzofuran-3(2H)-one] | –
17 | 11.5 | 106 | CNC(=O)Nc1ccc2c(c1)C(=O)/C(=C/c1c(C)n(CCN(C)C)c3ccc(OC)cc13)O2 [Compound 610, 1-[(2Z)-2-({1-[2-(dimethylamino)ethyl]-5-methoxy-2-methyl-1H-indol-3-yl}methylidene)-3-oxo-2,3-dihydro-1-benzofuran-5-yl]-3-methylurea] | –
18 | 162 | 2610 | CCc1cc(OC)cc2c(/C=C3\Oc4cc(O)ccc4C3=O)cn(CCN3CCN(C)CC3)c12 [Compound 473, (2Z)-2-({7-ethyl-5-methoxy-1-[2-(4-methylpiperazin-1-yl)ethyl]-1H-indol-3-yl}methylene)-6-hydroxy-1-benzofuran-3(2H)-one] | –
19 | 72.5 | 4020 | CNC(=O)Nc1ccc2c(c1)C(=O)/C(=C/c1cn(CCCN(C)C)c3ccc(OC)cc13)O2 [Compound 520, 1-[(2Z)-2-({1-[3-(dimethylamino)propyl]-5-methoxy-1H-indol-3-yl}methylene)-3-oxo-2,3-dihydro-1-benzofuran-5-yl]-3-methylurea] | –
20 | 246 | 1390 | CCc1cc(OC)cc2c(/C=C3\Oc4cc(O)ccc4C3=O)cn(CCCC#N)c12 [Compound 474, 4-{7-ethyl-3-[(Z)-(6-hydroxy-3-oxo-1-benzofuran-2(3H)-ylidene)methyl]-5-methoxy-1H-indol-1-yl}butanenitrile] | –
21 | > 10000 | > 10000 | COc1ccc2[nH]cc(C=C3Oc4cc(C(N)=O)ccc4C3=O)c2c1 [Compound 495, 2-[(5-methoxy-1H-indol-3-yl)methylene]-3-oxo-2,3-dihydro-1-benzofuran-6-carboxamide] | –
22 | 48 | 1890 | COc1cc(/C=C/CN2CCCCC2)c2[nH]cc(/C=C3\Oc4cc(O)ccc4C3=O)c2c1 [Compound 555, (2Z)-6-hydroxy-2-({5-methoxy-7-[(1E)-3-piperidin-1-ylprop-1-en-1-yl]-1H-indol-3-yl}methylene)-1-benzofuran-3(2H)-one] | –
23 | 132 | 1600 | COc1ccc2c(c1)c(/C=C1\Oc3ccc(NC(=O)NC4CC4)cc3C1=O)cn2CCCN(C)C [Compound 560, 1-cyclopropyl-3-[(2Z)-2-({1-[3-(dimethylamino)propyl]-5-methoxy-1H-indol-3-yl}methylene)-3-oxo-2,3-dihydro-1-benzofuran-5-yl]urea] | –
24 | 19.5 | 712 | CNC(=O)Nc1ccc2c(c1)C(=O)/C(=C/c1c(C)n(CCN3CCCC3)c3ccc(OC)cc13)O2 [Compound 611, 1-[(2Z)-2-{[5-methoxy-2-methyl-1-(2-pyrrolidin-1-ylethyl)-1H-indol-3-yl]methylidene}-3-oxo-2,3-dihydro-1-benzofuran-5-yl]-3-methylurea] | –
25 | 120 | 813 | COc1ccc2[nH]cc(C=C3Oc4cc(O)cc(Br)c4C3=O)c2c1 [Compound 505, 4-bromo-6-hydroxy-2-[(5-methoxy-1H-indol-3-yl)methylene]-1-benzofuran-3(2H)-one] | –
26 | 8 | 56 | COc1ccc2c(c1)c(/C=C1\Oc3cc(O)cc(O)c3C1=O)cn2CCCC#N [Compound 510, 4-{3-[(Z)-(4,6-dihydroxy-3-oxo-1-benzofuran-2(3H)-ylidene)methyl]-5-methoxy-1Hindol-1-yl}butanenitrile] | –

Row | Compound | IC50 (PI3K-alpha) [nM] | IC50 (PI3K-gamma; PI3Kγ Avg. IC50) [nM] | IC50 (PI3K-gamma; read-out: PI3Kγ Avg. IC50) [nM]
27 | 4-hydroxy-2-({5-methoxy-2-methyl-1-[2-(4-methylpiperazin-1-yl)ethyl]-1H-indol-3-yl}methylene)-1-benzofuran-3(2H)-one [Example 129] | 488 | – | 4500
28 | 4-hydroxy-2-[(1-{2-[4-(2-hydroxyethyl)piperazin-1-yl]ethyl}-5-methoxy-2-methyl-1H-indol-3-yl)methylene]-1-benzofuran-3(2H)-one [Example 131] | 478 | – | 3970
29 | 6,7-dihydroxy-2-[(1-{4-[4-(2-hydroxyethyl)piperazin-1-yl]butyl}-5-methoxy-2-methyl-1H-indol-3-yl)methylene]-1-benzofuran-3(2H)-one [Example 134] | 204 | – | 3170
30 | Cn1cc(/C=C2\Oc3cc(O)cc(O)c3C2=O)c2c(-c3ccccc3)cccc21 [Compound 531, (2Z)-4,6-dihydroxy-2-[(1-methyl-4-phenyl-1H-indol-3-yl)methylene]-1-benzofuran-3(2H)-one] | 340 | 2530 | –
31 | 6,7-dihydroxy-2-({5-methoxy-2-methyl-1-[4-(4-methylpiperazin-1-yl)butyl]-1H-indol-3-yl}methylene)-1-benzofuran-3(2H)-one [Example 132] | 337 | – | 4150
